This is an account of results in PubChem BioAssay (NCI).

Common to all, as to assay: growth of human tumour cells (NCI), 48 h
The subject of experiment [1] is HCC-2998 colon.
The test system of experiment [2] is SNB-75 CNS.
In experiment [3] the test system is SNB-19 CNS.
Experiment [4] relates to 786-0 renal.
Experiment [5] relates to UACC-62 melanoma.
In experiment [6] the test system is U251 CNS.
Experiment [7] concerns HCT-116 colon.
Experiment [8] has as its system KM12 colon.
The test system of experiment [9] is SN12C renal.
In experiment [10] the test system is SK-MEL-5 melanoma.

Several values for one entry are separate records, joined by “and”; a condition that tells them apart may be missing. Identical values can stand only once.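 Grown in 96-well plates, cells were treated for 48 hours with each compound at five concentrations. Insufficient inhibition: endpoint recorded as highest concentration tested. GI50 is the concentration that inhibits growth by half. TGI: concentration producing complete growth inhibition.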

As for `NC(N)=NC(N)=NCCc1ccccc1`, the GI50 in experiment [1] is greater than 100 µM; in experiment [2], > 100 µM and 81.2 µM; in [3] it was greater than 100 µM; in [4] it was greater than 100 µM; in experiment [5] it was greater than 100 µM; in experiment [6], greater than 100 µM. Also, the GI50 in experiment [7] is 92.5 µM and 36.3 µM; in experiment [8] it was greater than 100 µM; in experiment [9] it was greater than 100 µM; in [10] it was 87.7 µM and 73.3 µM. The TGI in [1], in experiment [2], in experiment [3], in [4], in experiment [5] and in experiment [6] was greater than 100 µM in each case. The TGI in [7], in experiment [8], in experiment [9] and in [10] was greater than 100 µM each time.

Take `Cc1ccc(NC2=C(Cl)C(=O)c3nc(C)ccc3C2=O)cc1`: the GI50 was 1.67 µM in [1]; 1.81 µM in experiment [2]; 1.32 µM in [3]; 1.75 µM in experiment [4]; 1.57 µM in experiment [5]; 1.31 µM in experiment [6]. Also, the GI50 was 1.32 µM in experiment [7], 2.59 µM in experiment [8], 1.37 µM in experiment [9] and 1.71 µM in experiment [10]. In addition, the TGI in [1] stood at 3.2 µM; in experiment [2] it was 3.72 µM; in experiment [3], 3.01 µM; in [4], 3.23 µM; in experiment [5], 2.97 µM; in [6], 2.75 µM. The TGI in [7] turned out to be 2.68 µM; in experiment [8], 12.1 µM; in [9] it was 2.85 µM; in experiment [10], 3.1 µM.

Take `O=C1C=C(Br)C(=O)C(Br)=C1`: the TGI in [1], in experiment [2], in experiment [3], in [4], in experiment [5] and in experiment [6] was greater than 100 µM throughout. Moreover, the TGI in experiment [7], in experiment [8], in [9] and in experiment [10] was greater than 100 µM throughout.

Regarding `COc1ccc(/C=N/NC(=O)O)cc1`, the TGI in experiment [1], in experiment [2], in [3], in experiment [4], in experiment [5] and in [6] was greater than 100 µM each time. Moreover, the TGI in experiment [7], in experiment [8], in experiment [9] and in [10] was greater than 100 µM in each case.

Regarding `Cc1ccc(C(=O)/C=C/c2ccccc2Cl)cc1`, the TGI was determined as 33.2 µM in [1]; 44.8 µM in experiment [2]; 32.5 µM in experiment [3]; 29.7 µM in [4]; 27.7 µM in experiment [5]; 30.3 µM in [6]. The TGI in experiment [7] was found to be 25.6 µM; in experiment [8], 30.2 µM; in [9] it was 39.3 µM; in [10], 38.5 µM.

With `CNC(=O)OCc1nc(S(C)=O)n(C)c1COC(=O)NC` (centres undefined), the TGI in experiment [1] was greater than 100 µM; in [2], greater than 100 µM; in experiment [3], greater than 100 µM; in [4], greater than 100 µM; in [5], greater than 65.9 µM; in experiment [6], greater than 100 µM. Also, the TGI in experiment [7] is greater than 100 µM; in experiment [8], greater than 100 µM; in experiment [9], greater than 100 µM; in experiment [10], greater than 46.4 µM.

On to `C=C(C)C1CC[C@]2(C(=O)O)CCC3(C)[C@H](CCC4[C@@]5(C)CC[C@H](OC6OC(CO)C(O)C6OC6OC(C)C(O)C(O)C6O)[C@@](C)(CO)C5CC[C@]43C)C12` (some centres undefined), for which the TGI in experiment [1], in experiment [2], in experiment [3], in experiment [4], in [5] and in experiment [6] was greater than 100 µM each time. Moreover, the TGI in experiment [7], in [8], in [9] and in experiment [10] was greater than 100 µM each time.

On to `CS(=O)(=O)c1ccc(C(F)(F)F)cc1NC(=O)Nc1cnc(Oc2ccc(-c3cc(Cl)cnc3N)cc2)nc1`, for which the GI50 in experiment [1] was 2.79 µM; in [2], 1.11 µM; in experiment [3] it was 2.8 µM; in experiment [4], 2.4 µM; in [5], 1.82 µM; in experiment [6], 2.56 µM. Further, the GI50 in experiment [7] was 2.17 µM; in [9] it was 2.25 µM; in experiment [10], 1.87 µM. Further, the TGI in experiment [1] is 8.72 µM; in [2], 11.5 µM; in [3] it was 34 µM; in experiment [4], 7 µM; in experiment [5] it was 4.72 µM; in experiment [6], 12.3 µM. The TGI in experiment [7] is 4.82 µM; in experiment [8], 3.6 µM; in experiment [9], 5.26 µM; in experiment [10] it was 3.87 µM.

`CCN(C)S(=O)(=O)Nc1cccc(Nc2ncnc3cc(NC(=O)CCl)ccc23)c1Cl`: the GI50 in [1] was 3.89 µM; in experiment [2], 3.36 µM; in [3], 2.99 µM; in experiment [4] it was 0.973 µM; in [5] it was 1.18 µM; in [6], 0.611 µM. Also, the GI50 in experiment [7] was 1.07 µM; in [8], 4.39 µM; in experiment [9], 1.08 µM; in experiment [10], 3.43 µM. Besides, the TGI came to 9.57 µM in experiment [1]; 7.67 µM in experiment [2]; 7.18 µM in experiment [3]; 4.04 µM in experiment [4]; 4.46 µM in experiment [5]; 1.64 µM in experiment [6]. Further, the TGI in experiment [7] was determined as 5.04 µM; in [8], 12.2 µM; in experiment [9] it was 4.46 µM; in experiment [10], 7.83 µM.

With `CC(C)OCN1COCN=C1NC#N`, the TGI in [1], in [2], in experiment [3], in experiment [4], in experiment [5] and in [6] was greater than 100 µM each time. In addition, the TGI in experiment [7], in [8], in experiment [9] and in experiment [10] was greater than 100 µM each time.

For the molecule `O=C(O)/C(O)=C1/C=C(c2ccccc2)c2ccccc21`, the TGI in experiment [1] amounted to 49.8 µM; in experiment [2], 61.7 µM; in [3], 83.9 µM; in experiment [4] it was 78 µM; in [5], 30 µM; in [6] it was 35.9 µM. Further, the TGI in experiment [7] worked out at 37.6 µM; in [8], 32.4 µM; in experiment [9] it was 61.9 µM; in experiment [10] it was 34 µM.

For the molecule `N/C(=N\C(=S)N1CCCCC1)N1CCCCC1`, the TGI in experiment [1], in [2], in [3], in experiment [4], in experiment [5] and in experiment [6] was greater than 100 µM in each case. The TGI in [7], in experiment [8], in [9] and in [10] was greater than 100 µM throughout.

In the case of `N#Cc1ccc(-n2cnc(NC(=O)[C@H]3CCN(C#N)C3)c2)cc1`, the GI50 in [1] was 2.28 µM; in [2], 0.519 µM; in [3], 3.51 µM; in experiment [4], 2.42 µM; in [5], 0.892 µM; in experiment [6], 3.29 µM. Also, the GI50 was 1.1 µM in experiment [7], 1.58 µM in experiment [8], 2.72 µM in experiment [9] and 2.08 µM in [10]. Further, the TGI is 18.6 µM in experiment [1]; 3.74 µM in experiment [2]; 98.7 µM in experiment [3]; 9.11 µM in experiment [4]; 4.47 µM in [5]; greater than 56.7 µM in experiment [6]. Also, the TGI in experiment [7] was 9.27 µM; in [8], 11.8 µM; in experiment [9] it was greater than 70.3 µM; in experiment [10], 6.13 µM.

Consider `CC(=O)N1c2ccccc2C23CCN4CC5=CCOC(O)C(C5CC42)C13` (centres undefined), for which the TGI in experiment [1], in experiment [2], in [3], in experiment [4], in [5] and in experiment [6] was greater than 100 µM in each case. The TGI in experiment [7], in experiment [8], in experiment [9] and in experiment [10] was greater than 100 µM throughout.

Consider `Cc1ccnc2c1NC(=O)c1cccnc1N2C1CC1`, for which the GI50 in [1] was greater than 100 µM; in experiment [2] it was 54.4 µM; in [3], greater than 100 µM; in [4] it was greater than 100 µM; in [5] it was greater than 100 µM; in [6], greater than 100 µM. The GI50 in [7], in experiment [8], in [9] and in [10] was greater than 100 µM in each case. The TGI in [1], in experiment [2], in experiment [3], in experiment [4], in [5] and in [6] was greater than 100 µM each time. The TGI in [7], in experiment [8], in experiment [9] and in [10] was greater than 100 µM in each case.

As to `O=C(C#Cc1c[nH]c(=O)[nH]c1=O)c1ccccc1`, the TGI in [1] came out at 32.4 µM; in experiment [2], 33.1 µM; in [3], 32 µM; in experiment [4], 24.6 µM; in experiment [5] it was 21.8 µM; in experiment [6] it was 26.9 µM. Besides, the TGI in experiment [7] worked out at 22 µM; in experiment [8], 29 µM; in experiment [9], 15.9 µM; in [10] it was 25.2 µM.

`CCOC(=O)C(=Cc1ccc(Br)cc1)C(=O)OCC`: the GI50 is 1.91 µM in experiment [1]; 1.59 µM in experiment [2]; 2.47 µM in experiment [3]; 2.01 µM in [4]; 1.39 µM in experiment [5]; 1.43 µM in experiment [6]. Further, the GI50 in experiment [7] was 1.4 µM; in experiment [8] it was 1.76 µM; in experiment [9] it was 2.03 µM; in experiment [10], 1.65 µM. For the same molecule, the TGI in experiment [1] worked out at 3.48 µM; in experiment [2] it was 3.17 µM; in [3] it was 7.55 µM; in experiment [4], 3.85 µM; in experiment [5] it was 3.29 µM; in [6] it was 2.98 µM. Further, the TGI in experiment [7] is 2.92 µM; in experiment [8] it was 3.66 µM; in [9], 4.21 µM; in [10] it was 3.12 µM.

Consider `Cc1cc(N2CCN(C)CC2)nc(NC2CCCC(Nc3ccnc4cc(Cl)ccc34)C2)n1` (centres undefined), for which the GI50 in [1] is 1.97 µM; in [2], 1.65 µM; in experiment [3], 3.42 µM; in experiment [4], 1.81 µM; in experiment [5], 1.8 µM; in [6], 2.02 µM. The GI50 in experiment [7] is 1.46 µM; in [8], 2.89 µM; in experiment [9], 3.09 µM; in experiment [10] it was 1.76 µM. Moreover, the TGI in [1] was determined as 7.4 µM; in [2], 5 µM; in experiment [3], 13.2 µM; in experiment [4], 4.15 µM; in experiment [5], 3.54 µM; in experiment [6] it was 4.33 µM. Also, the TGI in experiment [7] stood at 3.74 µM; in experiment [8], 10.1 µM; in experiment [9] it was 12.2 µM; in experiment [10] it was 3.17 µM.

For `O=C1/C(=C\c2ccccc2)c2ccccc2N1Cc1ccccc1`, the TGI in experiment [1] came to 16.4 µM; in experiment [2], 22.8 µM; in [3], 15 µM; in experiment [4], 23 µM; in experiment [5] it was 14.3 µM; in [6], 15.2 µM. In addition, the TGI in [7] is 12.4 µM; in experiment [8], 13.9 µM; in experiment [9], 28.9 µM; in experiment [10], 15.8 µM.

Consider `COc1cc2cc(C(=O)O)[nH]c2cc1OCc1ccccc1`, for which the GI50 in experiment [1], in [2], in [3], in experiment [4], in [5] and in experiment [6] was greater than 100 µM each time. The GI50 was greater than 100 µM in experiment [7], greater than 100 µM in experiment [8], greater than 100 µM in experiment [9] and 80.8 µM in experiment [10]. Besides, the TGI in experiment [1], in [2], in [3], in experiment [4], in experiment [5] and in experiment [6] was greater than 100 µM throughout. Further, the TGI in [7], in experiment [8], in [9] and in experiment [10] was greater than 100 µM each time.
